The values that follow come from patent publication US5726162A (priority 1996, dated 1998).

The subject of test [1] is Magnaporthe grisea (Pyricularia oryzae). Nature of the test: whole plant or invertebrate. The format is in vivo, Magnaporthe grisea (Pyricularia oryzae) on M201 rice plants. To be noted: for pest or weed control at 200 ppm: Pyricularia oryzae, 144 h, read-out: % Control RB.
A further test concerns fungal inoculum. Description: organism not typed. It is filed as cell-based. The settings on record: for inhibition at 50 ppm / inhibition at 100 ppm / inhibition at 5 ppm / inhibition at 1 ppm / inhibition at 10 ppm: read-out: % growth inhibition.
Another test concerns fungal mycelium. Description: organism not typed. The format is cell-based. To be noted: read-out: % growth inhibition.

With “5-chloro-1-(2-pentyn-1-yl)-2-quinolinone [Compound 149]”, the “% Control RB” value in test [1] (200 ppm, protectant) is on record as 100%. In the test on fungal inoculum, the “% growth inhibition” value was found to be 51.5%.
The term inhibition denotes how much of the control response was suppressed. For `O=C1CCC(c2ccc(Cl)cc2)=NN1c1ccccc1` [Compound 14], the pest or weed control at 200 ppm in test [1] was determined as 0%. Moreover, in the test on fungal inoculum, the inhibition at 50 ppm came out at 100%.
Take `CC#CC(C)N1N=C(c2ccc(Cl)cc2)CCC1=O` (stereo not drawn) [Compound 22]: the pest or weed control at 200 ppm in test [1] was 75%. Besides, the inhibition at 100 ppm in the test on fungal inoculum was found to be 99.7%.
With `CC#CCN1N=C(c2ccc(Cl)c(Cl)c2)CCC1=O` [Compound 23], the pest or weed control at 200 ppm in test [1] came to 50%. For the same compound, the inhibition at 5 ppm in the test with fungal inoculum turned out to be 100%.
On to `O=C1CCC(c2ccc(Cl)cc2)=NN1CC1CC1` [Compound 25], for which the pest or weed control at 200 ppm in test [1] is 50%. Further, the inhibition at 50 ppm in the test on fungal inoculum was determined as 100%.
On to `CC#CCN1N=C(c2ccc(Cl)cc2)C(C)CC1=O` (stereo not drawn) [Compound 26, 6-(4-chlorophenyl)-5-methyl-2-(2'-butynyl)-4,5-dihydropyridazinone], for which the pest or weed control at 200 ppm in test [1] turned out to be 95%. The inhibition at 50 ppm with fungal inoculum is 96.3%.
Regarding `CC#CCN1N=C(c2ccc(Cl)cc2)CC(C)C1=O` (stereo not drawn) [Compound 27], the pest or weed control at 200 ppm in test [1] turned out to be 0%. The inhibition at 50 ppm with fungal inoculum came out at 100%.
Turning to `CCC#CCN1N=C(c2ccc(Cl)c(Cl)c2)CCC1=O` [Compound 28, 6-(3,4-dichlorophenyl)-2-(2'-pentynyl)-4,5-dihydropyridazinone], in test [1], the pest or weed control at 200 ppm came out at 95%. Also, the inhibition at 1 ppm in the test on fungal inoculum amounted to 100%.
The like results for `CCCC#CCN1N=C(c2ccc(Cl)cc2)CCC1=O` [Compound 29] were, in that order, 95% and 86.1%.
`CC#CCN1N=C(c2ccccc2)CC(c2ccccc2)C1=O` (stereo not drawn) [Compound 30]: in the test on fungal inoculum, the inhibition at 50 ppm was found to be 41.2%.
As for `CC#CCN1N=C(c2ccc(Br)cc2)CCC1=O` [Compound 31], the pest or weed control at 200 ppm in test [1] came to 90%. Further, the inhibition at 5 ppm in the test on fungal inoculum came out at 92.4%.
As to `CC(C)=CCN1N=C(c2ccc(Cl)cc2)CCC1=O` [Compound 32], the pest or weed control at 200 ppm in test [1] was determined as 0%. In addition, the inhibition at 100 ppm in the test on fungal inoculum turned out to be 100%.
For `CC#CCN1N=C(c2ccc(Oc3ccccc3)cc2)CCC1=O` [Compound 33], in test [1], the pest or weed control at 200 ppm was 0%. Besides, the inhibition at 100 ppm in the test on fungal inoculum was found to be 27.6%.
Turning to `N#CCN1N=C(c2ccc(Cl)cc2)CCC1=O` [Compound 35], in test [1], the pest or weed control at 200 ppm was 75%. In the test on fungal inoculum, the inhibition at 50 ppm is 85%.
Regarding `O=C1CCC(c2ccc(Cl)cc2)=NN1Cc1cccs1` [Compound 36, 6-(4-chlorophenyl)-2-(2'-thienylmethyl)-4,5-dihydropyridazinone], in test [1], the pest or weed control at 200 ppm was 90%. For the same compound, the inhibition at 50 ppm in the test on fungal inoculum came to 100%.
For `CC#CCN1N=C(c2cccc(Cl)c2)CCC1=O` [Compound 37, 6-(3-chlorophenyl)-2-(2'-butynyl)-4,5-dihydropyridazinone], the pest or weed control at 200 ppm in test [1] turned out to be 90%. For the same compound, in the test on fungal inoculum, the inhibition at 100 ppm was found to be 100%.
For `CC#CCN1N=C(c2cc(Cl)cc(Cl)c2)CCC1=O` [Compound 38], the pest or weed control at 200 ppm in test [1] was 75%. Further, the inhibition at 100 ppm in the test on fungal inoculum was determined as 75.2%.
As to `CC#CCN1N=C(c2ccc(Cl)c([N+](=O)[O-])c2)CCC1=O` [Compound 39], in test [1], the pest or weed control at 200 ppm worked out at 0%. Besides, in the test on fungal inoculum, the inhibition at 50 ppm is 94.6%.
Take `CCC#CCN1N=C(c2ccc(Cl)c([N+](=O)[O-])c2)CCC1=O` [Compound 40]: the pest or weed control at 200 ppm in test [1] was determined as 0%. Further, the inhibition at 5 ppm in the test with fungal inoculum amounted to 95.7%.
Take `CCC#CCN1N=C(c2ccc(C(F)(F)F)cc2)CCC1=O` [Compound 41]: in test [1], the pest or weed control at 200 ppm worked out at 0%. In the test with fungal inoculum, the inhibition at 10 ppm stood at 89.2%.
For `CC#CCN1N=C(c2ccc(C(F)(F)F)cc2)CCC1=O` [Compound 42], in the test on fungal inoculum, the inhibition at 10 ppm worked out at 91.7%.
Regarding `CCC#CCN1N=C(c2cc(Cl)c(C)c(Cl)c2Cl)CCC1=O` [Compound 43], the pest or weed control at 200 ppm in test [1] turned out to be 0%. The inhibition at 10 ppm in the test on fungal inoculum amounted to 22.3%.
On to `CCC#CCN1N=C(c2cc(Cl)c(C)c(Cl)c2)CCC1=O` [Compound 44], for which the inhibition at 5 ppm in the test with fungal inoculum stood at 87%.
`C=C(C)C#CCN1N=C(c2ccc(Cl)cc2)CCC1=O` [Compound 45]: in test [1], the pest or weed control at 200 ppm worked out at 0%. Also, the inhibition at 10 ppm with fungal inoculum was 100%.
Regarding `CC(C)(C)C#CCN1N=C(c2ccc(Cl)cc2)CCC1=O` [Compound 46], the pest or weed control at 200 ppm in test [1] is 0%. In addition, the inhibition at 100 ppm with fungal inoculum was 100%.
As to `CC(O)C#CCN1N=C(c2ccc(Cl)cc2)CCC1=O` (stereo not drawn) [Compound 47, 6-(4-chlorophenyl)-2-(4'hydroxy-2'-pentynyl)-4,5-dihydropyridazinone], the pest or weed control at 200 ppm in test [1] turned out to be 0%. For the same compound, the inhibition at 50 ppm in the test on fungal inoculum came out at 100%.
As to `O=C1CCC(c2ccc(Cl)cc2)=NN1CC#Cc1cccs1` [Compound 67], the inhibition at 5 ppm with fungal inoculum was determined as 83.6%.
On the same count and under the same terms, then `O=C1CCC(c2ccc(Cl)cc2)=NN1CC#Cc1ccc(Cl)cc1` [Compound 68], with 10.4%.
Take `O=C1CCC(c2ccc(Cl)cc2)=NN1CC=CBr` [Compound 69]: the inhibition at 50 ppm in the test on fungal inoculum is 100%.
Consider `CCC#CCN1N=C(c2ccc(Cl)c(F)c2)CCC1=O` [Compound 74, 6-(4-chloro-3-fluorophenyl)-2-(2'-pentynyl)-4,5-dihydropyridazinone], for which the inhibition at 1 ppm in the test with fungal mycelium was 100%. In addition, in test [1], the pest or weed control at 200 ppm turned out to be 75%.
For the compound `O=C1CCC(c2ccc(Cl)cc2)=NN1CC=C(Br)CBr` [Compound 75], the inhibition at 100 ppm with fungal mycelium is 100%. In test [1], the pest or weed control at 200 ppm was determined as 0%.
As to `CCC#CCN1N=C(c2ccc(OC)cc2)CCC1=O` [Compound 81], in the test with fungal mycelium, the inhibition at 2.5 ppm was determined as 95.8%. Also, the pest or weed control at 200 ppm in test [1] was determined as 95%.
On to `CCC#CCN1N=C(c2ccc(F)cc2)CCC1=O` [Compound 82], for which the inhibition at 2.5 ppm with fungal mycelium was 100%. In addition, the pest or weed control at 200 ppm in test [1] was determined as 0%.
For `CC#CCN1N=C(c2ccc(Cl)c(F)c2)CCC1=O` [Compound 83], in the test with fungal mycelium, the inhibition at 0.5 ppm turned out to be 81.3%. Moreover, the pest or weed control at 200 ppm in test [1] was 90%.
As to `CCCCCCCC#CCN1N=C(c2ccc(Cl)cc2)CCC1=O` [Compound 85], the inhibition at 100 ppm in the test with fungal mycelium was 100%. In addition, the pest or weed control at 200 ppm in test [1] came to 0%.
For the compound `C[Si](C)(C)C#CCN1N=C(c2ccc(Cl)cc2)CCC1=O` [Compound 86], the inhibition at 100 ppm in the test with fungal mycelium worked out at 80%. Besides, the pest or weed control at 200 ppm in test [1] was 0%.
Regarding `CCOC(C#CCN1N=C(c2ccc(Cl)cc2)CCC1=O)OCC` [Compound 87, 6-(4-chlorophenyl)-2-(4'-aldehydo-2'-butynyl)-4,5-dihydropyridazinone, diethyl acetal], the inhibition at 100 ppm in the test on fungal mycelium stood at 100%. In addition, in test [1], the pest or weed control at 200 ppm was 75%.
Turning to `O=CC#CCN1N=C(c2ccc(Cl)cc2)CCC1=O` [Compound 88, 6-(4-chlorophenyl)-2-(4-aldehydo-2'-butynyl)-4,5-dihydropyridazinone], the inhibition at 100 ppm in the test with fungal mycelium worked out at 80%. For the same compound, in test [1], the pest or weed control at 200 ppm came to 0%.
On to `CCC#CCN1N=C(c2ccc(Br)cc2)CCC1=O` [Compound 91], for which the inhibition at 1 ppm in the test on fungal mycelium worked out at 100%. The pest or weed control at 200 ppm in test [1] amounted to 90%.
Regarding `C#CC#CCN1N=C(c2ccc(Cl)cc2)CCC1=O` [Compound 93, 6-(4-chlorophenyl)-2-(2',4'-pentadiynyl)-4,5-dihydropyridazinone], the inhibition at 0.5 ppm with fungal mycelium came out at 100%. Besides, the pest or weed control at 200 ppm in test [1] amounted to 0%.
Consider `O=C1CCC(c2ccc(Cl)cc2)=NN1CC#CC1CCCCC1` [Compound 94], for which, in the test on fungal mycelium, the inhibition at 10 ppm was found to be 22.2%. The pest or weed control at 200 ppm in test [1] worked out at 0%.
Consider `O=C1CCC(c2ccc(Cl)cc2)=NN1CC#CCC1CCCCC1` [Compound 95], for which the inhibition at 10 ppm with fungal mycelium is 22.2%. Further, in test [1], the pest or weed control at 200 ppm stood at 0%.
On to `CCCCCC#CCN1N=C(c2ccc(Cl)cc2)CCC1=O` [Compound 96], for which the inhibition at 10 ppm in the test on fungal mycelium stood at 94.5%. Moreover, the pest or weed control at 200 ppm in test [1] was 0%.
Regarding `CCC#CCN1N=C(c2ccc(Cl)cc2OC)CCC1=O` [Compound 99], in the test on fungal mycelium, the inhibition at 1 ppm was found to be 100%. In addition, the pest or weed control at 200 ppm in test [1] was 0%.
On to `CCC#CCN1N=C(c2ccc(Cl)cc2)C(F)(F)C(F)(F)C1=O` [Compound 106], for which the inhibition at 50 ppm with fungal mycelium came to 81%. For the same compound, in test [1], the pest or weed control at 200 ppm was 0%.
Consider `C#CCn1nc(-c2ccc(Cl)cc2)ccc1=O` [Compound 118], for which, in the test with fungal mycelium, the inhibition at 200 ppm was 100%. In test [1], the pest or weed control at 200 ppm was determined as 0%.
In the case of `CCC#CCn1nc(-c2ccc(Cl)cc2)c(F)c(F)c1=O` [Compound 122, 6-(4-chlorophenyl)-4,5-difluoro-2-(2'-pentynyl)-pyridazinone], in the test with fungal mycelium, the inhibition at 100 ppm was found to be 84.6%. The pest or weed control at 200 ppm in test [1] was determined as 0%.
On to `CCC#CCn1nc(-c2ccc(Cl)cc2)c(F)cc1=O` [Compound 123], for which, in the test on fungal mycelium, the inhibition at 100 ppm stood at 100%. The pest or weed control at 200 ppm in test [1] is 99%.
With `C#CC#CCn1nc(-c2ccc(Cl)cc2)ccc1=O` [Compound 125], the inhibition at 0.5 ppm in the test with fungal mycelium is 89.5%. In addition, the pest or weed control at 200 ppm in test [1] is 0%.
Take `CC#CCN1N=C(c2ccncc2)CCC1=O` [Compound 133]: in the test on fungal mycelium, the inhibition at 200 ppm turned out to be 67.4%. The pest or weed control at 200 ppm in test [1] was determined as 0%.
For the compound `CCC#CCN1N=C2c3ccc(Cl)cc3CC2CC1=O` (stereo not drawn) [Compound 143, 7-chloro-2,4,4a,5-tetrahydro-2-(2-pentyn-1-yl)-indeno[1,2-c]-pyridazin-3-one], the inhibition at 1 ppm with fungal mycelium turned out to be 100%. In addition, the pest or weed control at 200 ppm in test [1] amounted to 99%.
For `CCC#CCN1N=C(c2cc3ccccc3s2)CCC1=O` [Compound 144], the inhibition at 1 ppm in the test with fungal inoculum stood at 100%.
For the compound `CCC#CCn1nc(-c2cc3ccccc3s2)ccc1=O` [Compound 147], the inhibition at 50 ppm in the test with fungal inoculum was found to be 98.1%.
For `CCC#CCSc1ccc(-c2ccc(Cl)cc2)nn1` [Compound 152, 6-(4-chlorophenyl)-3-(2-pentyn-1-thio)-pyridazine], the inhibition at 10 ppm in the test with fungal mycelium came to 18.2%. Besides, the pest or weed control at 200 ppm in test [1] amounted to 0%.
As for `CCC#CCN1N=C(c2ccc(Cl)cc2)CC=C1OC` [Compound 158, 6-(4-chlorophenyl)-3-methoxy-2-(2'-pentyn-1-yl)-2,5-dihydropyridazine], in the test with fungal mycelium, the inhibition at 10 ppm is 100%. For the same compound, the pest or weed control at 200 ppm in test [1] was found to be 0%.
